Experiment [1] addresses T1, NEP (Rattus norvegicus, UniProt P07861).
T1 sequence (P07861 1-750): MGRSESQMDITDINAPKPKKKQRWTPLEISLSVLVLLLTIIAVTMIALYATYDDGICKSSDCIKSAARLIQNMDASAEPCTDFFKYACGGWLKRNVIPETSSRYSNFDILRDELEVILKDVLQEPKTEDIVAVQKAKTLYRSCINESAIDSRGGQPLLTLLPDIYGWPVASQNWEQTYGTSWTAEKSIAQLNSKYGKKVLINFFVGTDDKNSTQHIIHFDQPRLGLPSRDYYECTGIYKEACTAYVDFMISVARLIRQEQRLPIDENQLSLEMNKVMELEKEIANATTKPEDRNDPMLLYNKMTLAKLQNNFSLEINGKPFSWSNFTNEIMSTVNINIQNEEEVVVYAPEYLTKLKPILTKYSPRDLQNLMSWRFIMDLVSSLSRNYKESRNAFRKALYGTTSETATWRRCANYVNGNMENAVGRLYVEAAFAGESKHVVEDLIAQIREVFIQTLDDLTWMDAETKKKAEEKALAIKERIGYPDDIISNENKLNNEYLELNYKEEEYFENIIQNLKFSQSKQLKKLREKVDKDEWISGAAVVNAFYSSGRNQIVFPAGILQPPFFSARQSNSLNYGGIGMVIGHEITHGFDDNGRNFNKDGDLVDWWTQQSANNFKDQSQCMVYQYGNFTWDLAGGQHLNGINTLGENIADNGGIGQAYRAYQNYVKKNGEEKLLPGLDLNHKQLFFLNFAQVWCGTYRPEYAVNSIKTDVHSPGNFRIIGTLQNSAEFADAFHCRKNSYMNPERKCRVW
The experiment in a line: NEP inhibition activity (Experiment E-1). The class given is biochemical. The arrangement: membrane fraction prepared from rat renal cortex; from tissue; host or cells: rat renal cortex, membrane fraction (method of Booth and Kenny). The following applies: rat renal cortex membrane fraction. Here is the method:
As a source of the enzyme NEP, a membrane fraction prepared from rat renal cortex in accordance with the method of Booth and Kenny (A Rapid Method for the Purification of Microvilli from Rabbit Kidney., Andrew G. Booth and A. John Kenny, Biochem. j., 1974, 142,575-581.) was employed. The NEP activity was determined in accordance with the method of Orlowsky and Wilk (Purification and Specificity of a Membrane-Bound Metalloendpeptidase from Bovine Pituitaries., Marian Orlowsky and Shrwin Wilk, Biochemistry, 1981, 20, 4942-4950.). Now the procedure will be briefly described.
As a substrate, benzoyl-glycyl-arginyl-arginyl-2-naphthylamide (benzoyl-Gly-Arg-Arg-2 naphthylamide (Nova Biochem, Switzerland)) was used. In the presence of an NEP enzyme preparation and excessive leucine aminopeptidase (sigma chemical Co., U.S.A.), the liberated naphthylamine was made to undergo color development with first garnet (Sigma chemical Co., U.S.A.), followed by the measurement of the absorbance at a wavelength of 540 nm.
To determine the NEP inhibition activity and the ACE inhibition activity, the inhibitor was added to the assay systems of both enzyme activities as described above in such a manner as to give the final concentrations of 1, 3, 10, 30, 100, […] and 1000 nM and inhibition curves were prepared. Then the concentration at which 50% inhibition was achieved was taken as IC50.

Experiment [2] has as its target T1, NEP. The experiment in a line: NEP inhibition activity using rat renal cortex (Experiment A-1). It is filed as biochemical. Also noted: membrane fraction prepared from rat renal cortex; from tissue; host or cells: rat renal cortex, membrane fraction (method of Booth and Kenny). The following applies: rat renal cortex membrane fraction. Here is the method: The NEP activity was determined by using a membrane fraction prepared from rat renal cortex in accordance with the method of Booth and Kenny (A Rapid Metod for the Purificaton of Microvilli from Rabbit Kidney., Andrew G. Booth and A. John Kenny, Biochem j., 1974, 142, […].).
The NEP activity was determined by the following manner in accordance with the method of Orlowsky and Wilk (Purification and Specificity of a Membrane-Bound Metalloendopeptidase from Bovine Pituitaries., Marian Orlowsky and Shrwin Wilk, Biochemistry, 1981, 20, 4942-4950.).
As a substrate, benzoyl-glycyl-arginyl-arginyl-2-naphthylamide (benzoyl-Gly-Arg-Arg-2-naphthylamide (Nova Biochem, Switzerland)) was used. In the presence of an NEP enzyme preparation and excessive leucine aminopeptidase (sigma chemical Co., U.S.A.), the liberated naphthylamine was made to undergo color development with first garnet (Sigma chemical Co., U.S.A.), followed by the measurement of the absorbance at a wavelength of 540 nm.
With respect to the NEP inhibition activity, the inhibitor was added to the experimental system as described above in such a manner as to give the final concentrations of 1, 3, 10, 30, 100, 300 and 1000 nM, an inhibition curve was prepared, and then the concentration at which 50% inhibition was achieved was taken as IC50.

The structures appear in SMILES notation.

For orientation: IC50 means the concentration at which inhibition is half-maximal. High values mean a need for much substance, low ones inhibition by little substance.

For `O=C(N[C@H]1Cc2ccccc2[C@H]2CCC[C@@H](C(=O)O)N2C1=O)[C@@H](S)Cc1ccccc1` [Comp. cpd. E-1, [4S-[4α,7α(R*),12bβ]]-7-[(1-oxo-2-(S)-thio-3-phenyl-propyl)amino]-1,2,3,4,6,7,8,12b-octahydro-6-oxopyrido-[2,1-a][2]benzazepine-4-carboxylic acid, reference compound], the IC50 in experiment [1] stood at 27 nM. That is a double-digit nanomolar value.
The molecule `CC[C@H](C)[C@H](S)C(=O)NC1CCc2ccccc2N(CC(=O)O)C1=O` (stereo partly drawn) [Example A-9, 1-Carboxymethyl-3-[(2S,3S)-2-mercapto-3-methylvarelylamino]-1H-[1]benzazepin-2-one] yielded an IC50 in experiment [2] of 13 nM.
On the same count and under the same terms, with `CC[C@H](C)[C@H](S)C(=O)N[C@H]1CCc2ccccc2N(CC(=O)O)C1=O` [Example A-11, (S)-3-[(2S,3S)-2-Mercapto-3-methylvarelylamino]-1-carboxymethyl-2,3,4,5-tetrahydro-1H-[1]benzazepin-2-one] the figure was 6.2 nM.
The molecule `CC[C@H](C)[C@H](S)C(=O)N[C@H]1Cc2ccc(-c3ccccc3)cc2[C@H]2CCC[C@@H](C(=O)O)N2C1=O` [Example C-14, [4S-[4α,7α(R*),12bβ]]-7-[[(2S,3S)-3-Methyl-1-oxo-2-thiopentyl]amino]-6-oxo-11-phenyl-1,2,3,4,6,7,8,12b-octahydropyrido[2,1-a][2]benzazepine-4-carboxylic acid] showed an IC50 in experiment [1] of 14 nM. In other words, the double-digit nanomolar range.
Same read-out and setting: with `CC(C)[C@H](S)C(=O)N[C@H]1Cc2ccc(-c3ccccc3)cc2[C@H]2CCC[C@@H](C(=O)O)N2C1=O` [Example E-10, [4S-[4α,7α(R*),12bβ]]-7-[(S)-2-Mercapto-3-methylbutyrylamino]-6-oxo-11-phenyl-1,2,3,4,6,7,8,12b-octahydropyrido[2,1-a][2]benzazepine-4-carboxylic acid] the figure was 8.2 nM.

Source of the values: patent US5679671A, “Amino acid derivative” (Eisai Co., Ltd., priority 1993, dated 1997).
